Laboratory results from patent publication US20140162290A1, “PROBE FOR DETECTING DEAD CELL” (RIKEN, priority 2012, published 2014).

Assays:
[1] = molecular target: T1, human Tim4 IgG Fc fusion protein, modified type hTim4-184-Fc, SEQ ID NO: 61 (Homo sapiens, UniProt Q96H15); test: Dot blotting, binding of hTim4-184-Fc to PS; details: 0.15 μg of PS spotted; fusion protein 0.5 μg/mL, 4° C. overnight
T1 construct: replaced N-terminal leader; Freestyle 293F, purified
Method: (§1) Dot blotting was carried out by the following procedure to evaluate the binding capacity of each fusion protein (hTim4-Fc) prepared as described above to PS. On a PVDF membrane (GE Healthcare) with a size of 10 mm×10 mm, 0.15 μg of PS was spotted, and the resulting membrane was incubated in 500 μL of a blocking buffer (5% skim milk—PBS-T) in a 24-well plate at room temperature for 1 hour, to perform blocking. To the blocking buffer in the well, each fusion protein was added at a final concentration of 0.5 μg/mL, and incubation was carried out at 4° C. overnight. A control was provided by use of only the blocking buffer. Thereafter, the PVDF membrane was washed 5 times with 2 mL of PBS-T, and incubated at room temperature for 2 hours in an HRP-conjugated anti-human IgG-Fc antibody (Bethyl) solution which was 10000-fold diluted with 500 μL of the blocking buffer. Subsequently, the membrane was washed 5 times with 2 mL of PBS-T, followed by chemiluminescence using ECL prime (GE healthcare) and detection using LAS 3000 (Fujifilm).

[2] = molecular target: T2, human Tim4 IgG Fc fusion protein, modified type hTim4-240-Fc (111 mucin domain residues), SEQ ID NO: 51 (Homo sapiens, UniProt Q96H15, V240A); test: ELISA, binding capacity of hTim4-240-Fc to PS; details: n = 2
T2 construct: made in house; host or cells: Freestyle 293F cells
From the text: (§2) Using the primers shown in Table 4 and PrimeSTAR Mutagenesis Basal Kit (Takara Bio Inc.), vectors encoding fusion proteins having mucin domains with various lengths, in which the C-terminus and/or the N-terminus of the wild-type mucin domain was/were deleted. More specifically, phTim4-Fc was used as a template to prepare phTim4-240-Fc and phTim4-187-Fc; the obtained phTim4-187-Fc was used as a template to prepare phTim4-184-Fc, phTim4-181-Fc, phTim4-178-Fc, phTim4-175-Fc, phTim4-162-Fc, phTim4-149-Fc, phTim4-135-Fc, phTim4-130-Fc and phTim4-Δ131-187-Fc; the obtained phTim4-240-Fc was used as a template to prepare phTim4-Δ131-240-Fc; and the obtained phTim4-Δ131-187-Fc was used as a template to prepare phTim4-Δ131-187Δ241-310-Fc. […]
(§3) The obtained vector of 37.5 μg was transfected into 30 mL of 1×10^6 cells/mL Freestyle 293F cells (Life technologies) using Freestyle MAX Reagent (Life technologies), and the cells were cultured with shaking at 37° C. under 8% CO2 for 4 days. […] The purified protein was subjected to SDS-PAGE, and the molecular weight under non-reducing conditions was calculated (Table 6). […]
(§4) Into a 96-well plate, 100 μL of PS (0.5 mg/mL) or a solvent (methanol) was placed, and dried. […] An HRP-conjugated anti-human IgG-Fc antibody was used as a secondary antibody, and the absorbance due to coloring with TMB was measured using a microplate reader. […]

[3] = molecular target: T3, human Tim4 IgG Fc fusion protein, modified type hTim4-175-Fc (46 mucin domain residues), SEQ ID NO: 67 (Homo sapiens, UniProt Q96H15); test: ELISA, binding capacity of hTim4-175-Fc to PS; details: n = 2
T3 construct: made in house; host or cells: Freestyle 293F cells
From the text: as §2, §3, §4

[4] = molecular target: T4, human Tim4 IgG Fc fusion protein, modified type hTim4-187-Fc, SEQ ID NO: 59 (Homo sapiens, UniProt Q96H15); test: Dot blotting, binding of hTim4-187-Fc to PS; details: 0.15 μg of PS spotted; fusion protein 0.5 μg/mL, 4° C. overnight
T4 construct: replaced N-terminal leader; Freestyle 293F, purified
Method: as §1

[5] = molecular target: T5, human Tim4 IgG Fc fusion protein, modified type hTim4-178-Fc, SEQ ID NO: 65 (Homo sapiens, UniProt Q96H15); test: Dot blotting, binding of hTim4-178-Fc to PS; details: 0.15 μg of PS spotted; fusion protein 0.5 μg/mL, 4° C. overnight
T5 construct: replaced N-terminal leader; Freestyle 293F, purified
Method: as §1

[6] = molecular target: T6, human Tim4 IgG Fc fusion protein, modified type hTim4-187-Fc (58 mucin domain residues), SEQ ID NO: 59 (Homo sapiens, UniProt Q96H15); test: ELISA, binding capacity of hTim4-187-Fc to PS; details: n = 2
T6 construct: made in house; host or cells: Freestyle 293F cells
From the text: as §2, §3, §4

[7] = molecular target: T4, human Tim4 IgG Fc fusion protein, modified type hTim4-187-Fc, SEQ ID NO: 59; test: Dot blotting, binding specificity of hTim4-187-Fc to various phospholipids; details: PE, PC, PI and PS spotted, 1 μL of 100 pmol/μL each; fusion protein 0.5 μg/mL, room temperature 2 hours
Method: Dot blotting was carried out by the following procedure to evaluate the binding capacity of the fusion protein of the present invention to various phospholipids.
On a PVDF membrane (GE Healthcare), 1 μL each of 100 pmol/μL 3-sn-phosphatidylethanolamine (PE), L-α-phosphatidylcholine (PC), L-α-phosphatidylinositol (PI), and 3-sn-phosphatidyl-L-serine (Sigma Aldrich) were spotted, and the resulting membrane was incubated in 2 mL of a blocking buffer (5% skim milk—PBS-T) at room temperature for 1 hour, to perform blocking. To the blocking buffer in each well, hTim4-187-Fc was added at a final concentration of 0.5 μg/mL, and incubation was carried out at room temperature for 2 hours. Thereafter, the PVDF membrane was washed 5 times with 5 mL of PBS-T, and incubated at room temperature for 2 hours in an HRP-conjugated anti-human IgG-Fc antibody (Bethyl) solution which was 10000-fold diluted with 2 mL of the blocking buffer. Subsequently, the membrane was washed 5 times with 5 mL of PBS-T, followed by chemiluminescence using ECL prime (GE healthcare) and detection using LAS 3000 (Fujifilm).

[8] = molecular target: T7, human Tim4 wild-type IgG Fc fusion protein hTim4-Fc (181 mucin domain residues), SEQ ID NO: 49 (Homo sapiens, UniProt Q96H15, D300G/G301W/M299D/Q298T/V240A); test: ELISA, binding capacity of hTim4-Fc to PS; details: n = 2
T7 construct: made in house; host or cells: Freestyle 293F cells
Method: Using a vector encoding the hTim4 sequence (pCMV6-XL5 Homo sapiens T-cell immunoglobulin and mucin domain containing 4, transcript variant 1 as transfection-ready DNA, OriGene Technologies) as a template, and a primer containing an EcoRV restriction site at 5′-end (SEQ ID NO:22) and a primer containing a BglII restriction site at 3′-end (SEQ ID NO:23), PCR was performed. The obtained PCR product and pFUSE-hIgG1e3-Fc2 (InvivoGen) encoding the human IgG-Fc region were each digested with EcoRV and BglII, and the resulting digestion products were ligated to each other. E. coli (JM109, Takara Bio Inc.) was transformed with the resulting ligation product, and colonies were obtained. From the obtained colonies, plasmids were extracted, and the DNA sequences of the plasmids were analyzed. A colony having the hTim4 sequence inserted therein was subjected to large-scale culture, to obtain a vector. […]
as §3

[9] = molecular target: T8, human Tim4 IgG Fc fusion protein, modified type hTim4-184-Fc (55 mucin domain residues), SEQ ID NO: 61 (Homo sapiens, UniProt Q96H15); test: ELISA, binding capacity of hTim4-184-Fc to PS; details: n = 2
T8 construct: made in house; host or cells: Freestyle 293F cells
From the text: as §2, §3, §4

[10] = molecular target: T9, human Tim4 IgG Fc fusion protein, modified type hTim4-Δ131-187Δ241-310-Fc (58 mucin domain residues), SEQ ID NO: 57 (Homo sapiens, UniProt Q96H15, DEL135-187/V240A); test: ELISA, binding capacity of hTim4-Δ131-187Δ241-310-Fc to PS; details: n = 2
T9 construct: made in house; host or cells: Freestyle 293F cells
From the text: as §2, §3, §4

[11] = molecular target: T10, human Tim4 IgG Fc fusion protein, modified type hTim4-181-Fc (52 mucin domain residues), SEQ ID NO: 63 (Homo sapiens, UniProt Q96H15); test: ELISA, binding capacity of hTim4-181-Fc to PS; details: n = 2
T10 construct: made in house; host or cells: Freestyle 293F cells
From the text: as §2, §3, §4

[12] = molecular target: T11, human Tim4 IgG Fc fusion protein, modified type hTim4-181-Fc, SEQ ID NO: 63 (Homo sapiens, UniProt Q96H15); test: Dot blotting, binding of hTim4-181-Fc to PS; details: 0.15 μg of PS spotted; fusion protein 0.5 μg/mL, 4° C. overnight
T11 construct: replaced N-terminal leader; Freestyle 293F, purified
Method: as §1

[13] = molecular target: T12, human Tim4 IgG Fc fusion protein, modified type hTim4-178-Fc (49 mucin domain residues), SEQ ID NO: 65 (Homo sapiens, UniProt Q96H15); test: ELISA, binding capacity of hTim4-178-Fc to PS; details: n = 2
T12 construct: made in house; host or cells: Freestyle 293F cells
From the text: as §2, §3, §4

[14] = molecular target: T13, human Tim4 IgG Fc fusion protein, modified type hTim4-175-Fc, SEQ ID NO: 67 (Homo sapiens, UniProt Q96H15); test: Dot blotting, binding of hTim4-175-Fc to PS; details: 0.15 μg of PS spotted; fusion protein 0.5 μg/mL, 4° C. overnight
T13 construct: replaced N-terminal leader; Freestyle 293F, purified
Method: as §1

[15] = molecular target: T14, human Tim4 IgG Fc fusion protein, modified type hTim4-Δ131-240-Fc (55 mucin domain residues), SEQ ID NO: 55 (Homo sapiens, UniProt Q96H15, DEL135-260); test: ELISA, binding capacity of hTim4-Δ131-240-Fc to PS; details: n = 2
T14 construct: made in house; host or cells: Freestyle 293F cells
From the text: as §2, §3, §4

[16] = molecular target: T15, human Tim4 IgG Fc fusion protein, modified type hTim4-240-Fc, SEQ ID NO: 51 (Homo sapiens, UniProt Q96H15, V240A); test: Dot blotting, binding of hTim4-240-Fc to PS; details: 0.15 μg of PS spotted; fusion protein 0.5 μg/mL, 4° C. overnight
T15 construct: replaced N-terminal leader; Freestyle 293F, purified
Method: as §1

[17] = test system: A431 tumor; test: Diagnosis of apoptosis in target tissue (TUNEL and activated caspase 3 staining of tumor sections); assay type: in vivo, mouse (Balb/c-Ajcl-nu/nu); details: MMC 5 mg/6.25 mL/kg via tail vein, one, 3 and 5 days before the RI-labeled product
From the text: Male Balb/c-Ajcl-nu/nu mice of 5 to 6 weeks old (CLEA Japan, Inc.) were provided, and divided into two groups (the MMC administration group and the vehicle group; 3 individuals per group). A431 cells were inoculated into the left femoral region of each mouse, 2 to 3 weeks before the PET experiment for the MMC administration group, or 10 days to 2 weeks before the PET experiment for the vehicle group. Individuals of which the tumor size became […] on the day before the administration of the RI-labeled product were subjected to the PET experiment. One day, 3 days, and 5 days before the administration of the RI-labeled product, MMC (mitomycin C) was administered via the tail vein at an amount of 5 mg/6.25 mL/kg for the MMC administration group, and physiological saline was administered at amount of 6.25 mL/kg for the vehicle group.
After the completion of the PET experiment, the tumor was isolated from each mouse, and frozen sections were prepared. The prepared frozen sections were fixed with cold methanol, and stored at −20° C. until use. The sections were used for the experiment within 3 to 5 days after the dissection.
The frozen sections were subjected to blocking using Protein Block, Serum-Free (Dako), and then subjected to TUNEL staining using DeadEnd Fluorometric TUNEL System (Promega). […]

[18] = 10-fold dilution series of the fusion protein on PS-coated plate, read-out: EC50 ± SE (50% effective concentration)

T3 sequence (Q96H15 with tags, fused parts or gaps): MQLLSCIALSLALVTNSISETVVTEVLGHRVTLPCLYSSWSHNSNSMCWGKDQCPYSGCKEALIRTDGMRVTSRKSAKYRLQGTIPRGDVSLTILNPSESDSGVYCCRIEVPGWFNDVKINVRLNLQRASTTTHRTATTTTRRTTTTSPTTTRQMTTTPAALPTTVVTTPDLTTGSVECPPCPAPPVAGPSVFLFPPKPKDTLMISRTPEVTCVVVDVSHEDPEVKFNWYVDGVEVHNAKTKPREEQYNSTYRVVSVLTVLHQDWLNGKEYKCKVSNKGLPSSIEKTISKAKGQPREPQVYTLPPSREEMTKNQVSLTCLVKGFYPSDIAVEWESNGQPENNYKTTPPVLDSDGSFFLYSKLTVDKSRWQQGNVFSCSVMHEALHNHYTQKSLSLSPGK
T6 sequence (Q96H15 with tags, fused parts or gaps): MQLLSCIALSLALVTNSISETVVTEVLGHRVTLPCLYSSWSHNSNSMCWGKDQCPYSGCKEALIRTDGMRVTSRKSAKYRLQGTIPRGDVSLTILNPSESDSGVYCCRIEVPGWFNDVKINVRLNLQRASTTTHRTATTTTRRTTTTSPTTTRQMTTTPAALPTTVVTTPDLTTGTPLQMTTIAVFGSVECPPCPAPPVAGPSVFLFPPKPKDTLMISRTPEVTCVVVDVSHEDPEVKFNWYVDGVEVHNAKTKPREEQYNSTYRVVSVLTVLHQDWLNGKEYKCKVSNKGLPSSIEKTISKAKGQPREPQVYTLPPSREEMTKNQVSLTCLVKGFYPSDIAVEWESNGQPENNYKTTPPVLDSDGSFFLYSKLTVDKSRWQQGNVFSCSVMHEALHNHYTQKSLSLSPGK
T7 sequence (Q96H15 with tags, fused parts or gaps V240A/Q298T/M299D/D300G/G301W): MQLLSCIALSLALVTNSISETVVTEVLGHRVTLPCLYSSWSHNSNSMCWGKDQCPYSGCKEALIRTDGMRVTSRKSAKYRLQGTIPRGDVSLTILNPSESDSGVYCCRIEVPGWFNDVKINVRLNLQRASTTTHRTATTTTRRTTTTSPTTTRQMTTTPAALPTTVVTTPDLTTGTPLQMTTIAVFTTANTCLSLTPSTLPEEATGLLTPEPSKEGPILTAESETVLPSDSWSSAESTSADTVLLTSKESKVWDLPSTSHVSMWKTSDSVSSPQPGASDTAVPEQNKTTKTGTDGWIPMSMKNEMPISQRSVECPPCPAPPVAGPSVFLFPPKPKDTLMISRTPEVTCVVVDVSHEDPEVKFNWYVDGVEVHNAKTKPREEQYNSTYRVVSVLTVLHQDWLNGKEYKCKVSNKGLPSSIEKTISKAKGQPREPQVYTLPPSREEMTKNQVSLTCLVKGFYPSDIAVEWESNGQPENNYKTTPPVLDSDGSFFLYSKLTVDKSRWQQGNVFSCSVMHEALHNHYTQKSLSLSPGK
T10 sequence (Q96H15 with tags, fused parts or gaps): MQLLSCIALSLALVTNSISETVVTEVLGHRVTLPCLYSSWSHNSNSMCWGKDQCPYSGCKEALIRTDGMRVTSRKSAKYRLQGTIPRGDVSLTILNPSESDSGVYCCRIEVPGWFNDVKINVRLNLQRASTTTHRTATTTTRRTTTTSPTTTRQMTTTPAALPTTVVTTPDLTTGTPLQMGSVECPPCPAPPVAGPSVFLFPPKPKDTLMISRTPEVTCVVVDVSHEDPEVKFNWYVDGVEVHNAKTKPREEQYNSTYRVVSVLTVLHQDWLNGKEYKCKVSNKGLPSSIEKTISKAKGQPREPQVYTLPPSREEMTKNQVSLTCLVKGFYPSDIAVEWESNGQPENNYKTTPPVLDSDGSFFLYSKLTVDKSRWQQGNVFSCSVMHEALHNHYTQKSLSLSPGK
T8 sequence (Q96H15 with tags, fused parts or gaps): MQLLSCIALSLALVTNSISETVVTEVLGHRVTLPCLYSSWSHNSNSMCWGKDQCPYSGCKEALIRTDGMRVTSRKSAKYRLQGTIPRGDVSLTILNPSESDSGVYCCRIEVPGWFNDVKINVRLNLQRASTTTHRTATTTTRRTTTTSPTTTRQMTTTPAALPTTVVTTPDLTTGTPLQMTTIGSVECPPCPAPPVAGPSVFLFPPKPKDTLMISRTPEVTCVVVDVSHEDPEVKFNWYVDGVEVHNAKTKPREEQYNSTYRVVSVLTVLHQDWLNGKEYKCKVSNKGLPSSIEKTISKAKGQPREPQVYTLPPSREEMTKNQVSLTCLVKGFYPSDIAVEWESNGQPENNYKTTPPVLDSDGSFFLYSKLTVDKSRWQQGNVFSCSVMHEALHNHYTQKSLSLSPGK
T2 sequence (Q96H15 with tags, fused parts or gaps V240A): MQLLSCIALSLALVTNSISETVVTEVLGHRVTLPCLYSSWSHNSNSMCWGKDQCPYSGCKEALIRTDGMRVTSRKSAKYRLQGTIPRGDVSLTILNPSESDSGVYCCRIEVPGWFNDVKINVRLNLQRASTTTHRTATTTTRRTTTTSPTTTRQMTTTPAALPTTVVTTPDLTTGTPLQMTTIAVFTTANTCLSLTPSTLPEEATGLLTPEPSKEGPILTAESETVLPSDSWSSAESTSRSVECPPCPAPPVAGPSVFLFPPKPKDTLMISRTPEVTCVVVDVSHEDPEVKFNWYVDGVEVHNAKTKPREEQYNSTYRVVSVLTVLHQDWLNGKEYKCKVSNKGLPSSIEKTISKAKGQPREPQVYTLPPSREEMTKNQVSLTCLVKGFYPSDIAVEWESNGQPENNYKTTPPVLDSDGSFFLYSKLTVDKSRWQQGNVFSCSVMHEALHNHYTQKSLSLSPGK
T12 sequence (Q96H15 with tags, fused parts or gaps): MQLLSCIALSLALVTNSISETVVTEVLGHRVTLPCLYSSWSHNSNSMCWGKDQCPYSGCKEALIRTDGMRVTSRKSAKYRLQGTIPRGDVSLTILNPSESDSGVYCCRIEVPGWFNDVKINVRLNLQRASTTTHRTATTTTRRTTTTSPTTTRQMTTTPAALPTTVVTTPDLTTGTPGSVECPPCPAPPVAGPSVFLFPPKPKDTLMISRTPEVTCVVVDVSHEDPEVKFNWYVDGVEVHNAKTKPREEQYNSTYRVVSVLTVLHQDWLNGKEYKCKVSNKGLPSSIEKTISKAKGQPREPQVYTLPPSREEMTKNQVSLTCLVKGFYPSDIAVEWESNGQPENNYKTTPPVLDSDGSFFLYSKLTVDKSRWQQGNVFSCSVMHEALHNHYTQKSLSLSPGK
T14 sequence (Q96H15 with tags, fused parts or gaps DEL135-260 limits assumed): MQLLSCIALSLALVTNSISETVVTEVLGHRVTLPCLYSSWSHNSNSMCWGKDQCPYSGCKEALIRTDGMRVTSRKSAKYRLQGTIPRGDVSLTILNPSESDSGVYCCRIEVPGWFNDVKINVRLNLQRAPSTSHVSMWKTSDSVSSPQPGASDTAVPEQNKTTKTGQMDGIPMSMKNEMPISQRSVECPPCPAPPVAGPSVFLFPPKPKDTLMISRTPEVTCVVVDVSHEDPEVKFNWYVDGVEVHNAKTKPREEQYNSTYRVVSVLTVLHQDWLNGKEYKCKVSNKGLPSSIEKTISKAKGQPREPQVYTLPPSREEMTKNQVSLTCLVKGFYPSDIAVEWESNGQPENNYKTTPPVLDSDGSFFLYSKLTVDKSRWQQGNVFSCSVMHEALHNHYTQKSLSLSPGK
T9 sequence (Q96H15 with tags, fused parts or gaps DEL135-187/V240A limits assumed): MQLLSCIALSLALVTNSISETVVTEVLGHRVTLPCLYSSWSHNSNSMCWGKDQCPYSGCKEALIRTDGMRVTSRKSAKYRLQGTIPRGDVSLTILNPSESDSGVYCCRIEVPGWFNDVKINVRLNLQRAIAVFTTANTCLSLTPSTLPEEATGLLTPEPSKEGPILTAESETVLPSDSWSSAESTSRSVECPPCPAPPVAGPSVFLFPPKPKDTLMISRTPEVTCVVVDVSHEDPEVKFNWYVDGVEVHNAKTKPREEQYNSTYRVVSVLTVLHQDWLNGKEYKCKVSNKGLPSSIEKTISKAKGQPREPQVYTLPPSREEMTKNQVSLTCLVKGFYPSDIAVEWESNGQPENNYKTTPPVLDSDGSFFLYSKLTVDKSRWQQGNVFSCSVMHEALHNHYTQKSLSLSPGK
T15 sequence (Q96H15 with tags, fused parts or gaps V240A): as the sequence (Q96H15 with tags, fused parts or gaps V240A) above

3-sn-phosphatidyl-L-serine [PS]
binding to PS [1]: binding to PS was confirmed
EC50 [2, 18]: 7.1 ± 14.9 nM
Bmax ± SE (maximum binding amount) ([2]; PS-coated plate): 0.01 ± 0.01 Abs 450 nm
EC50 [3, 18]: 76.2 ± 19.5 nM
Bmax ± SE (maximum binding amount) ([3]; PS-coated plate): 0.77 ± 0.08 Abs 450 nm
binding to PS [4]: binding to PS was confirmed
binding to PS [5]: binding to PS was confirmed
EC50 [6, 18]: 62.8 ± 20.2 nM
Bmax ± SE (maximum binding amount) ([6]; PS-coated plate): 1.02 ± 0.14 Abs 450 nm
binding specificity to PS among phospholipids [7]: binds to only PS
EC50 [8, 18]: 0.2 nM
Bmax ± SE (maximum binding amount) ([8]; PS-coated plate): 0.00 ± 0.00 Abs 450 nm
EC50 [9, 18]: 100 ± 45.2 nM
Bmax ± SE (maximum binding amount) ([9]; PS-coated plate): 0.84 ± 0.17 Abs 450 nm
EC50 [10, 18]: 132 ± 305 nM
Bmax ± SE (maximum binding amount) ([10]; PS-coated plate): 0.02 ± 0.03 Abs 450 nm
EC50 [11, 18]: 47.5 ± 6.2 nM
Bmax ± SE (maximum binding amount) ([11]; PS-coated plate): 0.74 ± 0.04 Abs 450 nm
binding to PS [12]: binding to PS was confirmed
EC50 [13, 18]: 67 ± 54.8 nM
Bmax ± SE (maximum binding amount) ([13]; PS-coated plate): 0.63 ± 0.22 Abs 450 nm
binding to PS [14]: binding to PS was confirmed
EC50 [15, 18]: 148 ± 85.8 nM
Bmax ± SE (maximum binding amount) ([15]; PS-coated plate): 0.07 ± 0.02 Abs 450 nm
binding to PS [16]: binding to PS was confirmed

CO[C@@]12[C@H](COC(N)=O)C3=C(C(=O)C(C)=C(N)C3=O)N1C[C@@H]1N[C@@H]12 [MMC, mitomycin C]
occurrence of apoptosis in the tumor [17]: occurrence of apoptosis in the tumor of the MMC-administered individuals was confirmed
